According to US8329669B2, “Composition and method for treatment of tumors” (Sanofi, priority 2006, dated 2012):

Experiments:
Assay type in all cases: cell-based
HCT116 cells [1] = experiment: Cell-Titer Blue viability of cells expressing YFP or full length Core 1 treated with apoptosis inducers
Procedure: To determine whether Core 1 protected against apoptosis induced by TRAIL or through other pathways, cells were treated with several different apoptosis inducers and assayed for cell viability. Fas Ligand (FasL), also a TNFα family member which signals through Death Receptors, uses the same adaptor protein FADD to induce caspase activation and apoptosis. Cells stably expressing either yellow florescent protein (YFP) or human full length Core 1 were treated with 100 ng/ml of TRAIL or 16 ng/ml of FasL for 24 hours. Cell viability was assayed using the Cell-Titer Blue assay, where conversion of the indicator dye resazurin is used to measure the metabolic capacity of cells, an indicator of cell viability. […] Cells were then treated with two compounds which induce apoptosis through non-death receptor pathways. Camptothecin inhibits DNA topoisomerase 1, ultimately leading to DNA damage and death, while Taxotere is an inhibitor of microtubule depolymerization, which prevents cell division and leads to mitotic death.

HCT116 cells [2] = experiment: JC-1 mitochondrial membrane potential assay (FACS)
Procedure: As Core 1 is a subunit of the mitochondrial respiratory Complex III, work was conducted to determine whether expression of Core 1 protects against mitochondrial depolarization, a critical step in mitochondrial mediated apoptosis. Changes in mitochondrial membrane potential during TRAIL treatment were studied using the JC-1 Assay Kit (Molecular Probes). JC-1 (5, 5′,6,6′,-tetrachloro-1,1′,3,3′-tetraethylbenzimidazolylcarbocyanine) is a cationic dye which has a diffuse green fluorescence in the cytoplasm. The accumulation of JC-1 in the mitochondria, which depends on intact, polarized mitochondria, results in the formation of red fluorescent aggregates. The ratio of green to red fluorescence was measured for the cells described in Example 2 above by Fluorescence-activated Cell Sorter (FACS) analysis. FACS is a method to sort cells based on specific cellular surface markers (e.g., red or green fluorescence). The above ratio is plotted as a percentage of polarized mitochondria.

HCT116 cells [3] = experiment: Western blot for caspase activation upon TRAIL stimulation; conditions: full length Core 1 vs YFP expressing HCT116; 200 ng/ml TRAIL, 24 hours
Procedure: Cells stably expressing YFP or human full length Core 1 were treated for 24 hours with 200 ng/ml TRAIL, lysed, and western blotted with antibodies to several caspases. Caspase activation was detected by the cleavage of the full length pro-caspase to the smaller, active form. […] Thus, Core 1 expression inhibits the full activation of caspases 8, 9, and 3 upon TRAIL stimulation.

HCT116 cells [4] = experiment: Cytochrome c release into the cytoplasmic fraction (ELISA); conditions: 100 ng/ml TRAIL, 24 hours
Procedure: HCT116 cells stably expressing YFP or human full length Core 1 were treated with 100 ng/ml TRAIL for 24 hours. Control cells stably expressing YFP or human full length Core 1 were not treated with TRAIL. The cells were then harvested. Media containing floating cells was first removed to new tubes. The remaining adherent cells were detached using a cell scraper in ice-cold PBS and added to the media containing floating cells. The cells were pelleted by centrifuging at 1000×g for 10 minutes at 4° C. and resuspended in an iso-osmotic buffer (0.3M sucrose, 10 mM Tris pH 7.5, 1 mM EDTA, EDTA-free protease tablet). After a five minute incubation on ice, the cells were lysed using dounce homogenizers until about 90% of the plasma membranes were lysed. This was done to isolate the cytoplasmic fraction. The extent of cell lysis was monitored by mixing 10 μl of lysate with trypan blue and viewed on a hemocytometer. […] The concentration of lysates was determined using either the BioRad DC protein assay (BioRad) or the BCA method (Pierce, Rockford, Ill.). To quantitatively detect cytochrome c levels, lysates were assayed for cytochrome c using a Function ELISA cytochrome c kit (Active Motif, Carlsbad, Calif.) [FIG. 3B]. In untreated cells, low baseline levels of cytochrome c were detected in the cytoplasm.

HCT116 cells [5] = experiment: Annexin V apoptosis assay (FACS) after TRAIL treatment; conditions: 50 ng/ml TRAIL
Procedure: To further characterize the ability of Core 1 to protect against TRAIL-induced apoptosis, the pEYK vector containing the partial cDNA of UQCRC1 isolated from the screen was used to directly infect HCT116 cells. Cells expressing dominant-negative FADD (dnFADD), which inhibits the signal from the TRAIL receptors, was used as a control. Cells were treated for 48 hours with 0, 10 or 50 ng/mL of TRAIL and assayed for Annexin V, an early marker of apoptosis [FIG. 2A]. Expression of dnFADD inhibited TRAIL-induced apoptosis, with 78% of cells Annexin V negative or non-apoptotic at 50 ng/ml TRAIL.
To confirm that the protection observed from the partial Core 1 protein is indicative of its function, the full length human Core 1 protein was cloned into the pLenti-vector (containing a HA-tag) and used to infect HCT116 to produce a stable cell line expressing Core 1. A control cell line was prepared similarly to express Yellow Fluorescent Protein (YFP). To confirm the protein expression of full length Core 1, cells were homogenized to prepare a mitochondrial and cytoplasmic lysate and western blotted with antibodies to Core 1 [FIG. 2C]. The endogenous Core 1 is detected in the mitochondrial fraction of both YFP and Core 1 expressing cells. Exogenously expressed Core 1 is HA-tagged and is detected as a higher migrating band in the mitochondrial fraction, as well as the cytoplasmic fraction. […] Thus, Core 1 is expressed in these HCT116 stable cell lines. To determine if full length Core 1 also protects against TRAIL-induced apoptosis, cells were treated with TRAIL and assayed for apoptosis by FACS analysis for cells that were Annexin V positive or negative.

In the case of `CC[C@@]1(O)C(=O)OCc2c1cc1n(c2=O)Cc2cc3ccccc3nc2-1` [Camptothecin], the “difference in viability between cells expressing YFP or full length Core 1” value (HCT116 cells [1]; 200 nM Camptothecin in dimethyl sulfoxide) is reported as “No difference in viability”.

`CC(=O)O[C@@]12CO[C@@H]1C[C@H](O)[C@@]1(C)C(=O)[C@H](O)C3=C(C)[C@@H](OC(=O)[C@H](O)[C@@H](NC(=O)OC(C)(C)C)c4ccccc4)C[C@@](O)([C@@H](OC(=O)c4ccccc4)[C@H]21)C3(C)C` [Taxotere] was tested, and the “difference in viability between cells expressing YFP or full length Core 1” value (HCT116 cells [1]; 10 nM Taxotere in dimethyl sulfoxide) was “No difference in viability”.

“TRAIL: recombinant human TRAIL (BioMol), member of the TNF superfamily that induces apoptosis” was tested, and the polarized mitochondria remaining (HCT116 cells [2]; HCT116 expressing GFP, 50 ng/ml TRAIL) was 7%, the mitochondrial depolarization (HCT116 cells [2]; HCT116 expressing dnFADD, all concentrations of TRAIL) was “completely protected” and the polarized mitochondria (HCT116 cells [2]; HCT116 expressing partial Core 1, 50 ng/ml TRAIL) was 38%. The “protection from mitochondrial depolarization over GFP” value (HCT116 cells [2]; partial Core 1 vs GFP expressing cells, 50 ng/ml TRAIL) was 5 fold, the “caspase 8 activation” value (HCT116 cells [3]) was “less active caspase 8” and the “caspase 9 and caspase 3 activation” value (HCT116 cells [3]) was “reduced activation”. The “increase in cytochrome c released into the cytoplasmic fraction” value (HCT116 cells [4]; HCT116 expressing YFP, vs untreated) was 10 fold, the “cytochrome c released, relative to YFP cells” value (HCT116 cells [4]; HCT116 expressing full length Core 1) was “only one-half as much” and the “cells Annexin V negative” value (HCT116 cells [5]; HCT116 expressing GFP, 48 hours) was 2%. The “cells Annexin V negative or non-apoptotic” value (HCT116 cells [5]; HCT116 expressing dnFADD, 48 hours) was 78%, the “cells Annexin V negative” value (HCT116 cells [5]; HCT116 expressing partial Core 1, 48 hours) was 14.5% and the “protection against TRAIL-induced apoptosis” value (HCT116 cells [5]; full length Core 1 vs YFP expressing cells) was 2.5 fold. The “increase in protection from TRAIL induced apoptosis” value (HCT116 cells [5]; partial Core 1 vs GFP expressing cells) was 7 fold.

B1: FasL: Fas Ligand, TNFα family member which signals through Death Receptors (protein, UniProt P48023 130-281, looked up)
Tumor necrosis factor ligand …: QIGHPSPPPEKKELRKVAHLTGKSNSRSMPLEWEDTYGIVLLSGVKYKKGGLVINETGLYFVYSKVYFRGQSCNNLPLSHKVYMRNSKYPQDLVMMEGKMMSYCTTGQMWARSSYLGAVFNLTSADHLYVNVSELSLVNFEESQTFFGLYKL
For B1, the “protection from FasL induced apoptosis by Core 1 expression” value (HCT116 cells [1]; Core 1 vs YFP expressing cells, 16 ng/ml FasL, 24 hours) was “about a three-fold protection”.
